This note sets out measurements from publication PMC6804243, “Small-Molecule Inhibition of UBE2T/FANCL-Mediated Ubiquitylation in the Fanconi Anemia Pathway” (ACS Chemical Biology, 2019).

Assay [1] concerns the target T1, UBE2T/FANCLRING (ubiquitylation of GST-FANCLRING) (Homo sapiens, UniProt Q9NW38).
T1 sequence (Q9NW38 275-375 limits assumed): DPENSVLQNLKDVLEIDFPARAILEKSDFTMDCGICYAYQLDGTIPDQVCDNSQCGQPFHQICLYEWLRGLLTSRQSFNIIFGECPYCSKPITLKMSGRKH
The assay can be described thus: biochemical. The settings on record: for LE: ligand efficiency = 1.4(–logIC50)/HAC; for inhibition at 20 µM: read-out: Primary screen % Inhibition (20 M). An excerpt:
To identify small-molecule inhibitors of the FA pathway, we developed a high-throughput screen (HTS) compatible assay based on the FA ubiquitylation cascade (see Figure 1a, as well as Figure S1 in the Supporting Information). Given the complexity of the full FA ubiquitylation cascade, we constructed a simplified ubiquitylation reaction that would be robust for HTS purposes yet still provide many relevant protein species for small molecules to interact with. The recombinant protein assay developed used homogeneous time-resolved fluorescence (HTRF) and contained Cy5-labeled ubiquitin, the E1 enzyme UBE1, the E2 enzyme UBE2T, and the RING domain (residues 275–375) of the E3 FANCL (FANCLRING). FANCLRING was used as a surrogate substrate for ubiquitylation in the absence of the FA core and FANCD2/FANCI complexes.
Figure 1 Screening for inhibitors of the FA pathway. (a) Schematic of the HTRF ubiquitylation assay. Ubiquitylation of GST-tagged E3 (FANCLRING) by the E2 (UBE2T) places Cy5-labeled ubiquitin in close proximity to the anti-GST Tb cryptate. Excitation of the Tb cryptate donor results in FRET to the Cy5 acceptor. Simultaneous monitoring of the donor emission (620 nm) and acceptor emission (665 nm) allows for determination of the 665/620 ratio. (b) HTRF screen results showing average inhibition (n = 2) produced by compounds at 20 μM (in-house diversity library; 10 111 compounds) and 10 μM (Selleckchem epigenetic library; 119 compounds). Numbers given in parentheses represent the number of compounds per inhibition threshold.
Purified protein was concentrated using a Vivaspin-6 concentrator with a 10 kDa MW cut-off (Vivascience) and flash-frozen in small aliquots for storage at […]
Cy5 labelling of ubiquitin. To a 5 mg/mL solution of recombinant human ubiquitin (Boston Biochem) in 0.1 M NaHCO3 pH 8.3, was added a 4-fold molar excess of Cyanine5 NHS ester (Lumiprobe). The reaction was incubated at 23 °C for 4 hours in the dark. The protein was separated from unreacted dye by passage through a PD-10 desalting column (GE Healthcare) equilibrated with PBS. Purified protein was concentrated using a Vivaspin-6 concentrator with a 3 kDa MW cut-off (Vivascience) and flash-frozen in small aliquots for storage […]
Homogeneous Time-Resolved Fluorescence (HTRF) Assay. GST-FANCLRING (200 nM) was incubated with anti-GST Tb (CisBio, #61GSTTL) (2.5 ng final) at room temperature for 30 minutes in assay buffer (50 mM Tris-HCl pH 8.0, 1 mM TCEP, 5 mM MgCl2, 0.005% Tween-20). Meanwhile, 10 μL of UBE2T in assay buffer (or assay buffer alone for no enzyme controls) was incubated in a white 384-well plate (Corning) with 20 nL DMSO or compound in DMSO. After 30 minutes, the GST-RINGRING solution was added to an equal volume solution containing His-UBE1 (Boston Biochem) (16 nM), Cy5-ubiquitin (400 nM), ATP (0.8 mM) in assay buffer. 10 μL of this solution was immediately added to each well of the 384 -well plate containing UBE2T or buffer. F inal concentrations: His -UBE1 (4 nM), UBE2T (6 nM), GST -RINGRING (50 nM), Cy5-ubiquitin (100 nM), ATP (0.2 mM), compound (10 or 20 μM) in 0.1 %
(v/v) DMSO. After a 10 minute incubation at 23 °C, 5 µL of a 50 mM EDTA solution were added to each well to stop the reaction. Signal was measured at λEx 340 nm and λEm 665 nm and 620 nm using a PHERAstar FS plate reader
(BMG Labtech). A ratio was calculated as [λEm(665)/λEm(620)] × 104 for each well and this was used to determine the percent inhibition for test compounds.
Gel-based ubiquitylation assays. Assays were carried out in a total volume of 10 µL containing 20 nM His6-UBE1 (Boston Biochem), 50 nM UBE2T, 250 nM GST-E3 and 500 nM biotinylated ubiquitin (Boston Biochem) in buffer (50

In assay [2] the test system is FANCD2 foci and γH2AX in U2OS cells. The assay can be described thus: High-throughput high content indirect immunofluorescence (FANCD2 foci, γH2AX). The class given is cell-based. The settings on record: CU2 500 μM, HU 2.5 mM 8 h, cisplatin 10 μM 8 h; for H2AX positive nuclei, Experiment 1 / H2AX positive nuclei, Experiment 2 / H2AX positive nuclei, Experiment 3: CU1 200 μM, raw data; for H2AX positive nuclei, Totals: sum of experiments 1-3, CU1 200 μM. As to the method: In response to DNA damage, mUb-FANCD2 accumulates at sites of DNA lesions to form foci, promote DNA-damage sensing, activate cell-cycle checkpoints, and promote DNA repair.[23] Therefore, we employed high-throughput high-content indirect immunofluorescence studies to examine the effect of CU1 and CU2 on mUb-FANCD2 focus formation. The experimental format used was similar to the immunoblot-based experiments, excepting that, following treatment with HU (2.5 mM for 8 h) or cisplatin (10 μM for 8 h), cells were fixed, permeabilized and stained with specific FANCD2 primary and fluorescent secondary antibodies. In addition to monitoring mUb-FANCD2 foci, γH2AX was evaluated as a marker of DNA damage induction, and cell nuclei were visualized by 4′,6-diamidino-2-phenylindole (DAPI) staining. […] These observations are in accord with the immunoblot-based experiments wherein reductions in mUb-FANCD2 were observed (Figure 3a).
Figure 4 Further cell-based assays with CU1 and CU2: (a, b) Representative immunofluorescence images of U2OS cells treated with HU (2.5 mM, 8 h) or cisplatin (10 μM, 8 h) in the presence or absence of CU1 (200 μM) or CU2 (500 μM). (c) Quantification of the number of FANCD2 foci in cells treated as in panels (a) and (b). Data accumulated over three independent experiments, each consisting of three technical replicas. (d) IncuCyte analysis of U2OS cells treated with or without carboplatin (15 μM) and CU2 (250 μM). Mean calculated from three wells, four images per well. (HU = DMSO + HU, cisplatin = DMSO + cisplatin). […]
buffer (1 hour at room temperature) followed by three washes with PBST. Cells were then counterstained with DAPI (25 µg/mL) and mounted using Vectashield […]
High-throughput high content indirect immunofluorescence. U2OS cells, seeded in a 96-well plate, were treated with compound for 1 hour followed by 2.5 mM HU or 10 µM cisplatin for 8 hours. Cells were washed 3 times with wash buffer (1xPBS, 0.1% Tween-20) before being fixed in 2% paraformaldehyde (w/v) for 20 minutes at 23 °C. The cells were then washed a further 3 times in wash buffer before being stored overnight at 4°C in the final wash. Next day, the cells were permeabilized using 1xPBS, 0.5% Triton X-100 for 15 minutes at 23 °C and then washed 3 times with wash buffer before blocking with 5% BSA in 1xPBS, 0.1% Tween-20 for 30 minutes at 23 °C. After washing 3 times with wash buffer, the cells were incubated for 1 hour at 23 °C in the presence of primary antibodies (1:50 FANCD2, Santa Cruz, mouse monoclonal and 1:250 γH2AX, Cell Signalling, rabbit) in 5% BSA in wash buffer. After incubation in the presence of primary antibodies, the cells were washed 3 times with wash buffer before being incubated with secondary antibodies in 5% BSA in wash buffer for 1 hour in the dark at 23 °C. The secondary antibodies used were goat anti-mouse AlexaFluor 488 and goat anti-rabbit AlexaFluor 594 (both from Molecular Probes, Invitrogen). The cells were then washed a further 3 times with wash buffer before being stained in the presence of 2 µg/ml DAPI (Sigma D9542) in wash buffer for 10 minutes in the dark at 23 °C. After DAPI staining, the cells were washed 3 more times with wash buffer and stored in the final wash until ready for imaging.
A spinning-disk Opera PhenixTM (Perkin Elmer) microscope equipped with a 40x water immersion objective was employed to acquire 10 confocal images for each well in a single optimized focal plane comprising three fluorescence channels: 405, 488 and 568 nm for DAPI, Alexa Fluor 488 and Alexa Fluor 594, respectively. Image analysis and evaluation was done using Harmony High-Content Imaging and Analysis software. DAPI staining (405 nm) was used to segment nuclei, which were further gated for the presence of γH2AX staining

Assay [3] concerns U2OS cells. The assay can be described thus: IncuCyte cell proliferation assay. In kind it is cell-based. The settings on record: 15 μM carboplatin in DMSO-treated cells. As to the method:
Figure 4 Further cell-based assays with CU1 and CU2: (a, b) Representative immunofluorescence images of U2OS cells treated with HU (2.5 mM, 8 h) or cisplatin (10 μM, 8 h) in the presence or absence of CU1 (200 μM) or CU2 (500 μM). (c) Quantification of the number of FANCD2 foci in cells treated as in panels (a) and (b). Data accumulated over three independent experiments, each consisting of three technical replicas. (d) IncuCyte analysis of U2OS cells treated with or without carboplatin (15 μM) and CU2 (250 μM). Mean calculated from three wells, four images per well. (HU = DMSO + HU, cisplatin = DMSO + cisplatin).
Finally, to investigate if CU1 and CU2 could sensitize cells to a more clinically relevant chemotherapeutic agent, quantitative live cell analyses were performed using the IncuCyte platform. As the FA pathway is involved in the repair of ICLs, cells were treated with the ICL-inducing chemotherapeutic drug, carboplatin. For this experiment, U2OS cells were seeded at a relatively low (<10%) density and preincubated with CU1 or CU2 for 1 h. Carboplatin was then added to the cells and images were taken every 6 h for 8 days in order to monitor growth and proliferation of the cells.
Reaction mixtures were incubated for the indicated time at 37 °C and stopped by the addition of 2X reducing SDS -PAGE sample buffer, separated on NuPAGE Novex 4 –12% Bis/Tris gradient gels (Invitrogen) and visualized by Western blotting using the indicated antibodies (Table S3).
Cell culture. U2OS cells were cultured at 37 °C in a humidified atmosphere and 5% (v/v) CO2 in Dulbecco's Modified Eagle Medium (DMEM; Sigma-Aldrich) supplemented with 10% (v/v) fetal bovine serum (FBS), 100 units/ml of penicillin, […] of streptomycin and 292 μg/mL L-glutamine.
Cell extract preparation and immunoblotting. U2OS cells were lysed in buffer containing 50 mM Tris-HCl pH 7.5, 2% SDS, 10 mM NEM, cocktail protease inhibitor (Roche) and phosphatase inhibitor cocktail followed by sonication 100 µg of extracts were boiled for 5 mins at 95 °C in 5X loading buffer and loaded onto NuPAGE Novex 4–12% Bis/Tris gradient gels
(Invitrogen), or NuPAGE Novex 3-8% Tris/Acetate gradient gels (Invitrogen) for detection of mUb-FANCD2. After separation the gels were transferred to PVDF and the membranes were blocked with Tris-buffered saline containing 0.1% (v/v) Tween-20 (TBST) and 5% (v/v) bovine serum albumin (BSA) and incubated with the indicated primary and secondary antibodies. mUb-FANCD2 intensity was quantified using Image Studio (LI-COR).
IncuCyte cell proliferation assays. 2000 U2OS cells were seeded per well in 96-well plates and treated with compounds 24 hours afterwards. After 1 hour of compound treatment, 15 µM carboplatin (Sigma-Aldrich) was added and the cells were cultured in an incubator with an IncuCyte microscopy -platform (Essen BioScience). Phase -contrast images were acquired every 6 hours for 8 days until DMSO-carboplatin treated cells reached >80% confluence. Cell proliferation was monitored as the occupied area (% confluence) of cell images over time and calculated as percentage confluence over time. Cell confluency percentages were calculated using the integrated Cell Player software and results were analysed with Prism 6 (GraphPad Software).

The mark [4] stands for this setting: library stock, 10-point dose-response, read-out: Primary screen IC50.
The mark [5] stands for this setting: printed beside the structures in Figure S3, read-out: IC50 (Figure S3).

Each structure is given as a SMILES string. Read-outs that look alike come from different tables or passages of the source. Some results are limits rather than exact numbers.

On to `COc1ccc(CNC(=O)c2ccc(-n3nccc3C)cc2)cc1C(=O)O` [CU3], for which the concentration for half-maximal inhibition (IC50) in assay [1] (setting [4]) stood at 51.8 µM. Besides, in assay [1], the LE was found to be 0.22 and the inhibition at 20 µM was 20.3%. For the same molecule, the half-maximal inhibitory concentration (IC50) in assay [1] (setting [5]) came to 49.8 µM.
`Cc1cc(C(=O)O)cc(S(=O)(=O)Nc2ccccc2-n2cccn2)c1C` [CU4]: the results for the IC50 in assay [1] (setting [4]) and in assay [1] (setting [5]) were 61 µM and 82.5 µM, respectively. The LE in assay [1] worked out at 0.22. The inhibition at 20 µM in assay [1] was 20.7%.
In the same order, the values of `O=C(c1ccc2n[nH]nc2c1)N1CCC(COc2ccccc2)CC1` [CU6] are 30.8 µM, 25.8 µM, 0.26 and 37%.
In the case of `Cc1nc2ccccc2n1CCNS(=O)(=O)c1ccc2c(c1)CC(=O)N2` [CU7], the IC50 in assay [1] (setting [4]) turned out to be 64.2 µM. In assay [1], the LE was found to be 0.24 and the inhibition at 20 µM was determined as 39.6%. In addition, the 50% inhibitory concentration (IC50) in assay [1] (setting [5]) is 35.3 µM.
On the same counts, the results for `Cn1ncc(C#N)c1NC(=O)Cc1coc2cc3c(cc12)CCC3` [CU8] are 33.7 µM, 0.24, 34% and 73.2 µM.
`NC(=O)NO` [HU, Hydroxyurea, reference compound]: in assay [2], the “H2AX positive nuclei, Experiment 1” value is reported as 390; the “H2AX positive nuclei, Experiment 2” value came out at 672; the “H2AX positive nuclei, Experiment 3” value is 708; the “H2AX positive nuclei, Totals” value was 1770.
With `N.N.O=C([O-])C1(C(=O)[O-])CCC1.[Pt+2]` [carboplatin, reference compound], in assay [3], the proliferation rate entry is listed as “clear reduction in proliferation rate”. This molecule also came in with a confluency in assay [3] (after 8 days) of less than 100%.
In the case of `N.N.[Cl][Pt][Cl]` [cisplatin, reference compound], in assay [2], the “H2AX positive nuclei, Experiment 1” value turned out to be 915; the “H2AX positive nuclei, Experiment 2” value was 1122; the “H2AX positive nuclei, Experiment 3” value was determined as 1056; the “H2AX positive nuclei, Totals” value is 3093.
